The values that follow come from patent publication US8895509B2, “MIR-200 family induces mesenchymal-to-epithelial transition (MET) in ovarian cancer cells” (Georgia Tech Research Corporation, priority 2010, dated 2014).

What all share (type): cell-based, human
For series [1], the system named is HEY cells. The series can be described thus: morphology of HEY cells after microRNA transfection. The following applies: transfected with 30 nM miRNA, vs negative control. From the text: The OVCAR3 cell line was originally established from the ascites of a patient with poorly differentiated papillary epithelial OC [Hamilton et al., Cancer Res 1985, 45:3668-76]. The OVCAR3 cell line was obtained from the American Type Culture Collection (Manassas, Va.). The HEY cell line was derived from a patient with moderately differentiated papillary cystadenocarcinoma of the ovary [Buick et al., Cancer Res 1985, 45:3668-76]. The HEY cell line was kindly provided by Gordon Mills, Department of Molecular Therapeutics, University of Texas, MD Anderson Cancer Center.
(§1) 6×10^4 cells per well were seeded in 24-well plates. After 24 h, cells were transfected with 30 nM of miR-429 and miR-320 miRNA oligonucleotides (Ambion, Austin, Tex.) using Lipofectamine 2000 reagent (Invitrogen, Carlsbad, Calif.). The Ambion Pre-miRNA Precursor Negative Control was used as a control. Three days after transfection, cells were split and transfected again. This process was repeated every 3 days until 21 days when cells were assayed for response.

Series [2] relates to HEY cells. The series can be described thus: serum-induced invasion through a matrigel layer. The following applies: miR-429 transfected HEY cells vs negative control. As to the method:
(§2) For the migration and invasion assays, 2.5×10^3 overnight serum starved cells in serum-free media were added to the top chambers of trans-well plates (8 μm pore size; BD, Franklin Lakes, N.J.) and media containing 10% fetal calf serum (FCS) were added to the bottom chambers. After 8-12 h, the non-migrating (top) cells were removed and the invading (bottom) cells were counted. All assays were done in triplicate. For the wound-healing assay, 2.5×10^5 cells were seeded into six-well plates. After 24 h, a wound was incised, detached cells removed and fresh media added. Photos were taken after 8 hrs to monitor the invasion of cells into the wounded area.
(§3) To further explore the effects of ectopic expression of miR-429 in HEY cells, we looked for changes in cellular functions frequently associated with EMT. For example, ovarian and other types of cancer cells undergoing EMT typically display increased motility/migration and invasiveness. […] Relative invasiveness was also measured by monitoring serum-induced invasion through a matrigel layer.

In series [3] the test system is HEY cells. The series can be described thus: qRT-PCR of EMT marker mRNAs in transfected HEY cells. Here is the method:
as §1
Total RNA was extracted from cells using the miRVana miRNA isolation kit (Ambion). MicroRNA expression was carried our using TaqMan microRNA assays (Applied Biosystems, Carlsbad, Calif.) with human U6 as the endogenous control. For mRNA quantitation, RNA (4.0 μg) was reversed transcribed into cDNA using the Superscript III First-strand Synthesis System (Invitrogen) according to the manufacturer's instructions using sequence specific primers. Real-time PCR was performed using Power SYBR Green PCR Master Mix (Bio-Rad, Hercules, Calif.) and data normalized to glyceraldehydes-3-phosphate-dehydrogenase (GAPDH). Each transfection experiment was carried out in triplicate with 3 PCR reactions performed per transfection. The PCR results were analyzed by 1-way Analysis of Variance (ANOVA) and the Newman-Keuls-Student t test. A p value of <0.05 was considered significant.

For series [4], the system named is HEY cells. The series can be described thus: anchorage-independent growth in soft agar. The following applies: 8 days in soft agar, vs negative control. Here is the method:
Anchorage independent growth was examined using Cell Biolab's (San Diego, Calif.) soft agar kit according to the manufacturer's protocol. Briefly, 5,000 cells were grown in a 0.3% low melting temperature agar matrix. After 8 days of incubation, the agar matrix was solubilized, cells stained and absorbance recorded at 520 nm. The optical density (OD) was measured in a 96-well plate reader using a 485/520 nm filter set.
Anchorage-independent growth is another characteristic of mesenchymal cells and is considered a hallmark of cellular transformation [Takeyama et al., Cancer Lett 2010; 96:216-24]. We tested anchorage-independent growth of HEY cells transfected with miR-429 relative to controls.

In series [5] the test system is HEY cells. Kind of series: serum-induced migration, trans-well chamber assay. Conditions: miR-429 transfected HEY cells vs negative control. As to the method: as §2, §3

Entries after “also recorded” stand apart in the source; their conditions may differ.

Turning to “miR-429: miR-200 family member; mature miRNA UAAUACUGUCUGGUAAAACCGU (SEQ ID NO: 6); miRNA oligonucleotide (Ambion) transfected at 30 nM (listed as RNA, chemistry not given here; listed as Homo sapiens) [miR-200 family member; miRNA oligonucleotide (Ambion) transfected at 30 nM]”, the “morphological change of HEY cells” value in the series with HEY cells [1] is listed as “morphological change from an elongated, spindle-shaped, mesenchymal phenotype to a more rounded, epithelial-like phenotype; also recorded: change from an elongated mesenchymal-like morphology to a rounded epithelial-like morphology”. In addition, the “decrease in invasion relative to controls” value with HEY cells [2] is reported as more than 5 fold. Moreover, in the series on HEY cells [3], the “levels of E-cadherin mRNA” value is “concomitant increase; also recorded: significantly higher”, the “levels of FN1 (fibronectin) mRNA” value is recorded as “No significant difference”, the “levels of N-cadherin mRNA” value is “No significant difference” and the “levels of VIM (vimentin) mRNA” value is “No significant difference”. In the series with HEY cells [3], the “levels of ZEB1 mRNA” value was “significant decrease; also recorded: significantly lower” and the “levels of ZEB2 mRNA” value is on record as “significant decrease; also recorded: significantly lower”. Besides, in the series on HEY cells [4], the anchorage-independent growth result is recorded as “significant suppression; also recorded: significantly reduced”. In addition, the “migration through pores, slower than negative controls” value in the series with HEY cells [5] was more than 2 fold.
